Among the data in US20100105682A1, “CYCLOPROPYL-PIPERAZINE COMPOUNDS AS CALCIUM CHANNEL BLOCKERS” (priority 2006, published 2010) are IC50 values, retold here.

One may read the IC50 as the concentration needed to halve the response being measured.

The test has as its target T1, rat brain N-type calcium channel subunits (α1B+α2δ+β1b cDNA subunits) (Rattus norvegicus, UniProt Q02294).
T1 construct: expressed in transfected cells; host or cells: HEK 293 (human embryonic kidney), stably transfected; alternatively transiently transfected
Kind of test: N-type calcium channel block, whole cell patch clamp in HEK 293 cells. It counts as cell-based. Conditions: holding potential −80 mV to +10 mV. As to the method:
N-type calcium channel blocking activity was assayed in human embryonic kidney cells, HEK 293, stably transfected with the rat brain N-type calcium channel subunits (α1B+α2δ+β1b cDNA subunits). Alternatively, N-type calcium channels (α1B+α2δ+β1b cDNA subunits), L-type channels (α1C+α2δ+β1b cDNA subunits) and P/Q-type channels (α1A+α2δ+β1b cDNA subunits) were transiently expressed in HEK 293 cells. Briefly, cells were cultured in Dulbecco's modified eagle medium (DMEM) supplemented with 10% fetal bovine serum, 200 U/ml penicillin and 0.2 mg/ml streptomycin at 37 with 5% CO2. At 85% confluency cells were split with 0.25% trypsin/1 mM EDTA and plated at 10% confluency on glass coverslips. At 12 hours the medium was replaced and the cells transiently transfected using a standard calcium phosphate protocol and the appropriate calcium channel cDNA's. Fresh DMEM was supplied and the cells transferred to 28° C./5% CO2. Cells were incubated for 1 to 2 days prior to whole cell recording.
Whole cell patch clamp experiments were performed using an Axopatch 200B amplifier (Axon Instruments, Burlingame, Calif.) linked to a personal computer equipped with pCLAMP software. The external and internal recording solutions contained, respectively, 5 mM BaCl2, 10 mM MgCl2, 10 mM HEPES, 40 mM TEACl, 10 mM glucose, 87.5 mM CsCl (pH 7.2) and 108 mM CsMS, 4 mM MgCl2, 9 mM EGTA, 9 mM HEPES (pH 7.2). Currents were typically elicited from a holding potential of −80 mV to +10 mV using Clampex software (Axon Instruments). Typically, currents were first elicited with low frequency stimulation (0.067 Hz) and allowed to stabilize prior to application of the compounds. The compounds were then applied during the low frequency pulse trains for two to three minutes to assess tonic block, and subsequently the pulse frequency was increased to 0.2 Hz to assess frequency dependent block. Data were analyzed using Clampfit (Axon Instruments) and SigmaPlot 4.0 (Jandel Scientific).
For orientation: In patch-clamp work, channel activity is measured electrically.

Where [1] appears, read: low frequency stimulation 0.067 Hz (tonic block), read-out: IC50 @ 0.067 Hz.
Where [2] appears, read: pulse frequency 0.2 Hz (frequency dependent block), read-out: IC50 @ 0.2 Hz.

Each structure is given as a SMILES string. Read-outs that look alike come from different tables or passages of the source.

T1 sequence (Q02294 whole entry): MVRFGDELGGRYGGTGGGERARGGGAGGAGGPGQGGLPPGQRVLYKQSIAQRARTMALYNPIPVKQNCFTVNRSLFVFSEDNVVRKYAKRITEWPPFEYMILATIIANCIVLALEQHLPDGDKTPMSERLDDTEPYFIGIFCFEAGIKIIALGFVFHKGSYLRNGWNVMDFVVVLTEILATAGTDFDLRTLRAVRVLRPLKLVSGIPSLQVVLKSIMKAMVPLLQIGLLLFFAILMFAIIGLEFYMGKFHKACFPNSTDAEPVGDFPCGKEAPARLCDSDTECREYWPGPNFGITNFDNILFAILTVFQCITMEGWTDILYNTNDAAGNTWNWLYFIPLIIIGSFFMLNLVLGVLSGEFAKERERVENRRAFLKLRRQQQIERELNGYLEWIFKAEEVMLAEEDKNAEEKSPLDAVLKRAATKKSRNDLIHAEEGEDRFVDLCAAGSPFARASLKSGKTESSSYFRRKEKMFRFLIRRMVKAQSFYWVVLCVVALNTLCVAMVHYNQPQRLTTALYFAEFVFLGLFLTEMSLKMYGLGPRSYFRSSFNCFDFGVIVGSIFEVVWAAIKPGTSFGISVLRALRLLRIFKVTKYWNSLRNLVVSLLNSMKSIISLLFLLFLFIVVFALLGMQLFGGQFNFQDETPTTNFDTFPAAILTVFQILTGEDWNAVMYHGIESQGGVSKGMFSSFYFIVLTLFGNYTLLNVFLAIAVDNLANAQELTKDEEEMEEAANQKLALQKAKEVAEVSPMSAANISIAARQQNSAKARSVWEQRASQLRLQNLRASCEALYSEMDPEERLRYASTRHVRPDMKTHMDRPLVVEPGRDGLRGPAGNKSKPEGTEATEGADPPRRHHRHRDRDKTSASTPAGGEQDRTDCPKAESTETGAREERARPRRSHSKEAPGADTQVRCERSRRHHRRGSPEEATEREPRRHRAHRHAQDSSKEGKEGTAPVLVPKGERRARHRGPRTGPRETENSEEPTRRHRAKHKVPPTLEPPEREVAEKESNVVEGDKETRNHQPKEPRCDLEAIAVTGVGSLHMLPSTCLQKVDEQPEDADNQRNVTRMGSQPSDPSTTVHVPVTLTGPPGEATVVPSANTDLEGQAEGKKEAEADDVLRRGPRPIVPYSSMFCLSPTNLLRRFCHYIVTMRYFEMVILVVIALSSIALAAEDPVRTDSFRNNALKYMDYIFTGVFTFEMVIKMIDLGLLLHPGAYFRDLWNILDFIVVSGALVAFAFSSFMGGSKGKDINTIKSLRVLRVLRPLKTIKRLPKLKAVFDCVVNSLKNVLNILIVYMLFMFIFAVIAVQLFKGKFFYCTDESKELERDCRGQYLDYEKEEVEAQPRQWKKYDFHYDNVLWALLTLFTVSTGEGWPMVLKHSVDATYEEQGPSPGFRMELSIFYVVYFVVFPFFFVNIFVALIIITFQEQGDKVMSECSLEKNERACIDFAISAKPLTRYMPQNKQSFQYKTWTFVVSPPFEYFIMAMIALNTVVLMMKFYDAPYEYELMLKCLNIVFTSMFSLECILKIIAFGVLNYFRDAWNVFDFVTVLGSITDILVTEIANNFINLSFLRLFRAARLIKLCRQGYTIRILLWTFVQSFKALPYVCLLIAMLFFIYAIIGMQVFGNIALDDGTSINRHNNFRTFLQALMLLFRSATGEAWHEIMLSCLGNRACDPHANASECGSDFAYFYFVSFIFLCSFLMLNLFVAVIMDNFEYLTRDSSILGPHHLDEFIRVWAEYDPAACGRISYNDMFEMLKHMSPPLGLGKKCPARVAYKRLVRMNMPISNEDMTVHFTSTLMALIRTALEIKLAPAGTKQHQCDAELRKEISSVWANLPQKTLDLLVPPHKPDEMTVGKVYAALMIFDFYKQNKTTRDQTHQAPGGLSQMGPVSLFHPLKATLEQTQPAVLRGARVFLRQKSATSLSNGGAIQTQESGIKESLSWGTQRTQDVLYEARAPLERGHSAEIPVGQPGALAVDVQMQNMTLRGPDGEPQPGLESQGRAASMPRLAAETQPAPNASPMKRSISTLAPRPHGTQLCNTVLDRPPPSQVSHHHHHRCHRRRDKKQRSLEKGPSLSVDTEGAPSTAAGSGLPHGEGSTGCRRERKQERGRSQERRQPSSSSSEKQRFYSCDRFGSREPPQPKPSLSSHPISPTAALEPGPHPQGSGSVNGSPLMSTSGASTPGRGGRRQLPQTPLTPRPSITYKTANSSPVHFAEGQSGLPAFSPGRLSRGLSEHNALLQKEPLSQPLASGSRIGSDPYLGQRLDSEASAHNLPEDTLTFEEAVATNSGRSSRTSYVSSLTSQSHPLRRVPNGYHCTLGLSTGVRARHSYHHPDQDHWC
T1 sequence (P54290 25-944 partner limits assumed): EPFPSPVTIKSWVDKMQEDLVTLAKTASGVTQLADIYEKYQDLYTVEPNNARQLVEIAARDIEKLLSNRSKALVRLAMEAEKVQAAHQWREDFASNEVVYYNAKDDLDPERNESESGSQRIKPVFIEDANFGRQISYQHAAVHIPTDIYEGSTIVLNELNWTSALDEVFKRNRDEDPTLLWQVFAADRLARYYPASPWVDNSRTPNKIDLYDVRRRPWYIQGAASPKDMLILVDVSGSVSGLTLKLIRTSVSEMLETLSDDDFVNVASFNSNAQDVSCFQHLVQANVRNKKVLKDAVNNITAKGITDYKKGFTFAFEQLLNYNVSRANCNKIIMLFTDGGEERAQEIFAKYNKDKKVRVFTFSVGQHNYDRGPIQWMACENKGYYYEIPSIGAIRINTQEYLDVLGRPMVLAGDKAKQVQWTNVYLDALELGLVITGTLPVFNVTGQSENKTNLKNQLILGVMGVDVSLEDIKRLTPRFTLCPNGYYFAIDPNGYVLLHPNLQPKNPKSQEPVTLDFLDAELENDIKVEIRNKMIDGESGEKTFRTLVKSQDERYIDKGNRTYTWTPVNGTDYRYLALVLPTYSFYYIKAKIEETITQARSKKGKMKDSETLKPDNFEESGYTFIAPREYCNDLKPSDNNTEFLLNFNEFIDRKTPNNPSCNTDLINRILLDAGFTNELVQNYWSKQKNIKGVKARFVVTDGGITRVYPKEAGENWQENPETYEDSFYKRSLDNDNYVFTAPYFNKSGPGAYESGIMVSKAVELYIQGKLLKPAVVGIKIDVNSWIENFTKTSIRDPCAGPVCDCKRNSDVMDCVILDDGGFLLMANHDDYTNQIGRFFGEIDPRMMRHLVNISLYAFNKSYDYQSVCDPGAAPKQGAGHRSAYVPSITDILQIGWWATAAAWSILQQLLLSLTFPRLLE
T1 sequence (P54290 945-1091 partner limits assumed): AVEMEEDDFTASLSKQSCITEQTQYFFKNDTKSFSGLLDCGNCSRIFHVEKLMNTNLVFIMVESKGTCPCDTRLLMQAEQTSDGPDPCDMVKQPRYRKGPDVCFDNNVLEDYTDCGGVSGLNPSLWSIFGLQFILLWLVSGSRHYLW
T1 sequence (P54283 whole entry partner): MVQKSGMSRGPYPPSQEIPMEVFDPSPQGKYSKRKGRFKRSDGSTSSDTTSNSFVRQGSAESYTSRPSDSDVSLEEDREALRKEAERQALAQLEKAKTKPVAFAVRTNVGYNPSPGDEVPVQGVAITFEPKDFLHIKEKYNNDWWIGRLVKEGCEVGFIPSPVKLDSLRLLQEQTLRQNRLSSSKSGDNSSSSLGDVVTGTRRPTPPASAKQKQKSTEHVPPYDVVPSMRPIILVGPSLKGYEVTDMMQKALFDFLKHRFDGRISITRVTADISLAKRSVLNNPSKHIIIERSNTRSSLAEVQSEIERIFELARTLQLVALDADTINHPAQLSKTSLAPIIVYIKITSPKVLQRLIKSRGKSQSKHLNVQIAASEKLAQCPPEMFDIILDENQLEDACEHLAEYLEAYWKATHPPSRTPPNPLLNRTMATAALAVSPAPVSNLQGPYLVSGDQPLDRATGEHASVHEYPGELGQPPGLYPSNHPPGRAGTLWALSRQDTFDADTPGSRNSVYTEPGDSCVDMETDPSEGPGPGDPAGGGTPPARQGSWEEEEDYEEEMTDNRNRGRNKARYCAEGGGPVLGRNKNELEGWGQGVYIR

Consider `O=C(Nc1ccccc1)C1CC1C(=O)N1CCN(C(c2ccccc2)c2ccccc2)CC1` (centres unmarked) [Compound 6, 2-(4-benzhydrylpiperazine-1-carbonyl)-N-phenylcyclopropanecarboxamide], for which the IC50 reads like this: under setting [1], 3200 nM; under setting [2], 1900 nM.
Turning to `CNC1CCN(C(=O)C2CC2C(=O)N2CCN(C(c3ccccc3)c3ccccc3)CC2)CC1` (centres unmarked) [Compound 16, (4-benzhydrylpiperazin-1-yl)(2-(4-(methylamino)piperadine-1-carbonyl)cyclopropyl)methanone], the IC50 runs as follows: under setting [1], 12500 nM; under setting [2], 6790 nM.
With `CC1CCC(NC(=O)C2CC2C(=O)N2CCN(C(c3ccccc3)c3ccccc3)CC2)CC1` (centres unmarked) [Compound 12, 2-(4-benzhydrylpiperazine-1-carbonyl)-N-(4-methylcyclohexyl)cyclopropane carboxamide], the IC50 reads like this: under setting [1], 180 nM; under setting [2], 120 nM.
As for `O=C(C1CC1C(=O)N1CCN(C(c2ccccc2)c2ccccc2)CC1)N1CCN(c2ccccc2F)CC1` (centres unmarked) [Compound 8, (4-benzhydrylpiperazin-1-yl)(2-(4-(2-fluorophenyl)piperazine-1-carbonyl)cyclopropyl)methanone], the IC50 was determined as 940 nM under setting [1] and 530 nM under setting [2].
For `COCCN1CCN(C(=O)C2CC2C(=O)N2CCN(C(c3ccccc3)c3ccccc3)CC2)CC1` (centres unmarked) [Compound 7] the same measures were 2000 nM and 1500 nM.
On to `CC1CCC(CN2CCN(C(=O)C3CC3C(=O)N3CCN(C(c4ccccc4)c4ccccc4)CC3)CC2)CC1` (centres unmarked) [Compound 18, (4-benzhydrylpiperazin-1-yl)(2-(4-((4-methylcyclohexyl)methyl)piperazine-1-carbonyl)cyclopropyl)methanone], for which the IC50 by setting is: under setting [1], 690 nM; under setting [2], 440 nM.
The matching figures for `O=C(C1CC1C(=O)N1CCN(C(c2ccccc2)c2ccccc2)CC1)N1CCN(c2ccccc2)CC1` (centres unmarked) [Compound 2, (4-benzhydrylpiperazin-1-yl)(2-(4-phenylpiperazine-1-carbonyl)cyclopropyl)methanone]: 440 nM and 310 nM.
With `CC(C)(C)N1CCN(C(=O)C2CC2C(=O)N2CCN(C(c3ccccc3)c3ccccc3)CC2)CC1` (centres unmarked) [Compound 15, (4-benzhydrylpiperazin-1-yl)(2-(4-tert-butylpiperazine-1-carbonyl)cyclopropyl) methanone], the IC50 under setting [1] worked out at 8530 nM and the concentration for half-maximal inhibition (IC50) under setting [2] worked out at 6860 nM.
As to `CN1CCN(C(=O)C2CC2C(=O)N2CCN(C(c3ccccc3)c3ccccc3)CC2)CC1` (centres unmarked) [Compound 3, (4-benzhydrylpiperazin-1-yl)(2-(4-methylpiperazine-1-carbonyl)cyclopropyl)methanone], the IC50 runs as follows: under setting [1], 2500 nM; under setting [2], 1500 nM.
Regarding `COc1ccccc1N1CCN(C(=O)C2CC2C(=O)N2CCN(C(c3ccccc3)c3ccccc3)CC2)CC1` (centres unmarked) [Compound 9, (4-benzhydrylpiperazin-1-yl)(2-(4-(2-methoxyphenyl)piperazine-1-carbonyl)cyclopropyl)methanone], the IC50 was 630 nM under setting [1] and 430 nM under setting [2].
Turning to `O=C(C1CC1C(=O)N1CCN(C(c2ccccc2)c2ccccc2)CC1)N1CCN(C(c2ccccc2)c2ccccc2)CC1` (centres unmarked) [Compound 1], the half-maximal inhibitory concentration (IC50) stood at 160 nM under setting [1] and 150 nM under setting [2].
Consider `CC1CN(C(=O)C2CC2C(=O)N2CCN(C(c3ccccc3)c3ccccc3)CC2)CC(C)N1` (centres unmarked) [Compound 13, (4-benzhydrylpiperazin-1-yl)(2-(3,5-dimethylpiperazine-1-carbonyl)cyclopropyl)methanone], for which the IC50 was 710 nM under setting [1] and 440 nM under setting [2].
For the molecule `CC(C)(C)C1CCC(NC(=O)C2CC2C(=O)N2CCN(C(c3ccccc3)c3ccccc3)CC2)CC1` (centres unmarked) [Compound 11, 2-(4-benzhydrylpiperazine-1-carbonyl)-N-(4-tert-butylcyclohexyl)cyclopropane carboxamide], the 50% inhibitory concentration (IC50) worked out at 90 nM under setting [1] and 80 nM under setting [2].
Regarding `CC(C)N(C(=O)C1CC1C(=O)N1CCN(C(c2ccccc2)c2ccccc2)CC1)C(C)C` (centres unmarked) [Compound 14, 2-(4-benzhydrylpiperazine-1-carbonyl)-N,N-diisopropylcyclopropane carboxamide], the IC50 is, setting by setting: under setting [1], 1560 nM; under setting [2], 860 nM.
For `CC(NC(=O)C1CC1C(=O)N1CCN(C(c2ccccc2)c2ccccc2)CC1)c1ccccc1` (centres unmarked) [Compound 10, 2-(4-benzhydrylpiperazine-1-carbonyl)-N-(1-phenylethyl)cyclopropane carboxamide], the IC50 runs as follows: under setting [1], 1550 nM; under setting [2], 970 nM.
Consider `O=C(C1CC1C(=O)N1CCN(C(c2ccccc2)c2ccccc2)CC1)N1CCC(N2CCOCC2)CC1` (centres unmarked) [Compound 4, (4-benzhydrylpiperazin-1-yl)(2-(4-morpholinopiperadine-1-carbonyl)cyclopropyl)methanone], for which the IC50 is, setting by setting: under setting [1], > 5830 nM; under setting [2], > 3950 nM.
